Test results: patent US8415480B2, “Thiazolidine carboxamide derivatives as modulators of the prostaglandin F receptor” (Merck Serono SA, priority 2002, dated 2013)

What was measured:
[1] = target: T1, human Prostaglandin F2α receptor (Homo sapiens, UniProt P43088); assay: In vitro competition binding assay on human Prostaglandin F2α receptor (Scintillation Proximity Assay, 3H PGF2-alpha radioligand); details: scintillation proximity competition binding assay against Prostaglandin F2α as radioligand; read-out: Binding affinity for human Prostaglandin F2α receptor Ki
T1 construct: Human Prostaglandin F2α receptor (full-length cDNA) was subcloned into the pCEP4; expressed in transfected cells; host or cells: HEK 293 EBNA cells (membrane preparation)
T1 sequence (P43088 whole entry): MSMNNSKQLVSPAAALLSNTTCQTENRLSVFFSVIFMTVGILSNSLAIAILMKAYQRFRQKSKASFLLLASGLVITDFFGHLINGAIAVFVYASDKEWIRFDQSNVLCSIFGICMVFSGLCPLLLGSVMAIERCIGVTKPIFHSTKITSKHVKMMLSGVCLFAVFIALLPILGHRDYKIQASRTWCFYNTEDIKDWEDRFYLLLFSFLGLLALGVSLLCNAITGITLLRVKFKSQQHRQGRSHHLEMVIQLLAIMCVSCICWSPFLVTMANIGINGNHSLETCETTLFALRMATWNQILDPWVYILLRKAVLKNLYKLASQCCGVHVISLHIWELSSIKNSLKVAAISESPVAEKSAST
Description: The compounds of formula (II), were be subjected to the following in vitro and in vivo biological assays: • 1) In vitro competition binding assay on human Prostaglandin F2α receptor using a Scintillating Proximity Assay (SPA)
This assay allows to determine the binding affinity of the test compounds of formula (I) for the human Prostaglandin F2α receptor: […]
Human Prostaglandin F2α receptor (full-length cDNA) was subcloned into the pCEP4 (Invitrogen) vector and transfected together with the hygromycin resistance gene into HEK 293 EBNA cells by Calcium-phosphate co-precipitation method. Antibiotic resistant cells were grown under constant selection pressure in DMEM/F-12 medium supplemented with 2% fetal calf serum, 4 mM L-Glutamine and 8 ml/l Insulin-Transferrin-Selenium-mix (all Invitrogen) and 300 μg/ml hygromycin at 37° C. in a humidified atmosphere of 5% CO2 in air. At 48 h before harvesting, receptor expression was enhanced by adding 5 mM of Na-butyrate. Cells were washed twice with phosphate buffer saline, harvested and pelleted by centrifugation.
Cell pellet was lysed by Dounce homogenisation in 250 mM sucrose, 25 mM Tris-HCl pH 7.5, 10 mM MgCl2, 1 mM EDTA containing proteases inhibitors according to the manufacturer (Boehringer Mannheim) at 4° C. The lysate was centrifuged at 1000 g, 4° C. for 10 min and the supernatant was centrifuged at 160000 g, 4° C. for 60 min. The membranes pellets were resuspended in binding buffer (10 mM MES pH 6.2, 10 mM MgCl2, 1 mM EDTA containing proteases inhibitors), frozen in dry ice ethanol and stored at −80° C.
In vitro competition binding with Scintillation proximity assay (SPA) was performed in Corning NBS 96 wells plates. Briefly, 100 μl of binding buffer containing 15 to 30 μg of purified membranes, 4 mg/ml of wheat-germ agglutinin (WGA) SPA beads and 1 to 2 nM of ^3H PGF2-alpha (determined by Scatchard analysis) in 1% DMSO was incubated for 2 hours at room temperature. Non-specific binding was determined in the presence of 1 μM of non-radioactive Prostaglandin F2α. The concentrations of compounds (antagonist) used to compete with the radioactive ligand (agonist) were 10 μM, 3 μM, 1 μM, 300 nM, 100 nM, 30 nM, 10 nM, 1 nM, 100 pM, 10 pM. The radioactivity was counted on a Microbeta plate counter and the binding data were analysed using the iterative, non-linear, curve-fitting program, “Prism” (GraphPad Software, Inc).

[2] = target: T1, human Prostaglandin F2α receptor; assay: Inhibition of Prostaglandin F2α induced IP3 synthesis in HEK/EBNA cells expressing the Prostaglandin F2α receptor; assay type: cell-based; details: HEK EBNA cells expressing the human Prostaglandin F2α receptor; 30 nM PGF2α
Method: • 2) In vitro functional assay 1: Inhibition of Prostaglandin F2α induced IP3 (Inositol Triphosphate) Synthesis in HEK/EBNA-cells expressing the Prostaglandin F2α receptor
Cells were transfected by the calcium phosphate precipitation method with the appropriate plasmid and selected for hygromycinB resistance. The surviving colonies were assayed for their ability to retain specific [^3H] PGF2α binding. Selected clones were maintained in DMEM-F12 medium supplemented with 4 mM L-glutamine, 300 μg/ml hygromycinB and 2% fetal bovine serum (10% for cells expressing rFP).
Cells were detached with PBS/EDTA, washed with inositol-free DMEM-F12 medium and seeded at 80000 cells/well in a Poly-L-Lysine precoated 12 well plate. Cells were labelled with myo-[^3H] Inositol at 4 μCi/ml in inositol-free DMEM-F12 supplemented with 1% fetal bovine serum, 4 mM L-glutamine and 300 μg/ml hygromycinB. After 24 hours (rFP expressing cells) or 40 hours (hFP expressing cells), the medium was removed and cells were pre-incubated for 10 min in assay buffer (DMEM-F12 without Inositol, 20 mM Hepes, 0.1% BSA) containing 20 mM LiCl at 37° C. For agonist dose response, cells were then stimulated for 1 hour at room temperature with increasing concentration of PGF2α, in assay buffer. […] For agonist activity determination of the test compounds themselves, the test compounds were added to the cells at 10 μM and 1 μM for 1 hour at room temperature.
800 μl were then transferred to 400 μl of neutralizing solution (0.72N KOH, 0.6 M KHCO3), vortexed, and sedimented for at least 2 hours at 4° C. After centrifugation of 15 min. at 2500 g, 1 ml of the supernatant was loaded on a chromatography column, followed by two washes with 10 ml of water. The IP3 to be quantified were eluted with 3 ml elution buffer (1M ammonium formate, 0.1 M formic acid) and radioactivity was counted on a Beckman LS6000TA scintillation counter to measure the amount of phosphorylated [^3H] inositol.

[3] = target: T1, human Prostaglandin F2α receptor; assay: Inhibition of Prostaglandin F2α induced Ca2+-mobilization in HEK/EBNA cells expressing the Prostaglandin F2α receptor (FLIPR); assay type: cell-based; details: HEK EBNA cells expressing the human Prostaglandin F2α receptor, 2 times the EC50 of Prostaglandin F2α
Method: • 3) In vitro functional assay 2: Inhibition of Prostaglandin F2α induced Ca^2′-mobilization in HEK/EBNA-cells expressing the Prostaglandin F2α receptor, as measured by FLIPR® (Fluorimetric Imaging Plate Reader).
HEK EBNA cells were seeded at 60000 cells/well in a Poly-L-Lysine precoated black/white bottom 96 well plate. […] Calcium mobilization was then measured on the FLIPR for 4 min. […] After the wash with FLIPR buffer, increasing concentrations of test compounds were added to the cells in FLIPR buffer and calcium mobilization was measured for 1 min.

[4] = tested on: uterine contractions in non-pregnant Sprague Dawley female rats; assay: PGF2α or fluprostenol-induced uterine contractions in non-pregnant rats; assay type: in vivo, rat; details: 40 minutes after administration by i.v. route, cumulative dose of 30 mg/kg
Method: a) PGF2α or fluprostenol-induced uterine contractions in non-pregnant rats
Non-pregnant Sprague Dawley female rats (Charles River, Calco, Italy) weighing 200-300 g were used. They received an i.p. injection of 250 μg/kg diethylstilbestrol (DES) 18 and 24 hours before the experiment. On the day of the experiment, they were anaesthetized with urethane (1.05 g/kg, i.p.) and placed on a homeothermic operating table. The trachea was then isolated and cannulated with a suitable polyethylene (PE) tubing. A midline incision at the hypogastrium level was made, one uterine horn exposed and its tubal end closed (near the ovary) by a ligature with surgical silk. About 3 cm posteriorly to the first tie, the uterine horn wall was incited (close to the uterus body) and a PE240 tubing was inserted into the lumen and secured with surgical silk. After filling the internal cavity with 0.2 ml of sterile physiological saline solution, the catheter was connected to an amplifying/recording system (MacLab, ADInstruments Pty Ltd, Castle Hill, Australia) via a P23ID Gould Statham pressure transducer. One jugular vein was then isolated and cannulated with a PE60 catheter connected to a butterfly needle for the intravenous administration of Prostaglandin F2α (Sigma Chem. co., St. Louis, Mo., USA) and (±)fluprostenol (Cayman Chemicals, Ann Arbor, Mich., USA) or test compounds. […]

[5] = tested on: spontaneous uterine contractions in late-term pregnant Sprague Dawley female rats; assay: Spontaneous uterine contractions in late-term pregnant rats; assay type: in vivo, rat
Description: b) Spontaneous Uterine Contractions in Late-Term Pregnant Rats: • (i) Preparation of the Experiment:
Late-term pregnant (19-21 days of gestation) Sprague Dawley female rats (Charles River, Calco, Italy) weighing 350-400 g were anesthetized with urethane (1.05 g/kg, i.p.) and placed on a homeothermic operating table. The trachea was isolated and cannulated with a suitable polyethylene (PE) tubing. A midline incision at the hypogastrium level was made, one pregnant uterine horn exposed and its tubal end closed (near the ovary) by a ligature with surgical silk. In the correspondence of the last foetus near the above-mentioned ovary, the uterine horn wall was incited taking care not to injure the adjacent placenta, and a PE240 tubing with a latex balloon (9 mm length when empty, capacity 0.1 ml; Radnoti, Monrovia, Calif., USA) on the top was inserted into the lumen and secured with surgical silk. After filling the internal cavity of the latex balloon with 0.1 ml of sterile physiological saline solution, the catheter was connected to an amplifying/recording system (MacLab, ADInstruments Pty Ltd, Castle Hill, Australia) via a P23ID Gould Statham pressure transducer. […]
The spontaneous contractile response of the uterus was quantified by evaluating the area under the curve (AUC) of the changes in the intra-luminal uterine pressure over time (by Chart V4.04 for Windows software, PowerLab ADInstruments, Castle Hill, Australia). The effect of the test compound on the spontaneous uterine contraction was evaluated as the percent variation of the AUC calculated in a 10-min interval following the administration of each dose of test compound as compared to the AUC in a 10-min interval before the administration of the first dose of test compound (basal value). When possible, a dose-response curve (of peak effect) was plotted and the relative ED50 value calculated (by S-Plus 2000 v. 4.6 statistical software, Mathsoft, Inc. Seattle, Wash., USA).

Ki [1] [nM] | SMILES | also measured
620 | O=C(NC(CCO)c1ccco1)C1SCCN1S(=O)(=O)c1ccc(-c2ccccc2)cc1 (centres unmarked) [3-([1,1′-biphenyl]-4-ylsulfonyl)-N-[1-(2-furyl)-3-hydroxypropyl]-1,3-thiazolidine-2-carboxamide] | 
170 | O=C(NC(CN1CCCC1)c1ccccc1)C1SCCN1S(=O)(=O)c1ccc(-c2ccccc2)cc1 (centres unmarked) [3-([1,1′-biphenyl]-4-ylsulfonyl)-N-[1-phenyl-2-(1-pyrrolidinyl)ethyl]-1,3-thiazolidine-2-carboxamide] | 
1100 | O=C(NCCc1ccccc1)NCc1ccc(CNC(=O)C2SCCN2S(=O)(=O)c2ccc(-c3ccon3)s2)cc1 (centres unmarked) [3-{[5-(3-isoxazolyl)-2-thienyl]sulfonyl}-N-{4-[({[(2-phenylethyl)amino]carbonyl}amino)methyl]benzyl}-1,3-thiazolidine-2-carboxamide] | 
330 | Cc1c(S(=O)(=O)N2CCSC2C(=O)N[C@@H](Cc2ccccc2)C(=O)O)sc2ccc(Cl)cc12 (stereo partly drawn) [(2S)-2-[({3-[(5-chloro-3-methyl-1-benzothien-2-yl)sulfonyl]-1,3-thiazolidine-2-yl}carbonyl)amino]-3-phenylpropanoic acid] | 
65 | O=C(N[C@@H](CCO)c1ccccc1)[C@@H]1SCCN1S(=O)(=O)c1ccc(-c2ccccc2)cc1 [Example 1, (2S)-3-([1,1′-biphenyl]-4-ylsulfonyl)-N-[(1S)-3-hydroxy-1-phenylpropyl]-1,3-thiazolidine-2-carboxamide] | IC50 [2]: 185 nM; IC50 [3]: 48 nM; inhibition of uterine contractions [4]: 26%; ED50 ([5]; Rattus norvegicus, iv, 10 min, i.v. infusion over 10 minutes, spontaneous uterine contractions, read-out: calculated ED50 value): 28 mg/kg; calculated ED50 value ([5]; i.v. infusion over 10 minutes, spontaneous uterine contractions): 2.8 mg/kg/min; inhibition of uterine contractions ([5]; i.v. route (infusion over 10 minutes), cumulative dose of 30 mg/kg): > 50%
120 | CCC(C)(C)c1ccc(S(=O)(=O)N2CCS[C@H]2C(=O)N[C@@H](CCO)c2ccccc2)cc1 [Example 10, (2S)—N-[(1S)-3-hydroxy-1-phenylpropyl]-3-[(4-tert-pentylphenyl)sulfonyl]-1,3-thiazolidine-2-carboxamide] | 
50 | O=C(NC(CCO)c1c(F)cccc1F)C1SCCN1S(=O)(=O)c1ccc(-c2ccccc2)cc1 (centres unmarked) [Example 14, 3-([1,1′-biphenyl]-4-ylsulfonyl)-N-[1-(2,6-difluorophenyl)-3-hydroxypropyl]-1,3-thiazolidine-2-carboxamide] | 
20 | CN(CC[C@H](NC(=O)[C@@H]1SCCN1S(=O)(=O)c1ccc(-c2ccccc2)cc1)c1ccccc1)Cc1ccccc1 [Example 19] | 
 | CN(CCO)CC[C@H](NC(=O)[C@@H]1SCCN1S(=O)(=O)c1ccc(-c2ccccc2)cc1)c1ccccc1 [Example 21, (2S)-3-([1,1′-biphenyl]-4-ylsulfonyl)-N-{(1S)-3-[(2-hydroxyethyl)(methyl)-amino]-1-phenylpropyl}-1,3-thiazolidine-2-carboxamide] | IC50 [2]: 225 nM; IC50 [3]: 202 nM
55 | O=C(N[C@H](c1ccccc1)c1ccccn1)[C@@H]1SCCN1S(=O)(=O)c1ccc(-c2ccccc2)cc1 [Example 62, (2S)-3-(1,1′-biphenyl-4-ylsulfonyl)-N—[(R)-phenyl(pyridin-2-yl)methyl]-1,3-thiazolidine-2-carboxamide] | IC50 [2]: 15 nM; IC50 [3]: 20 nM
1150 | CC(=O)NCCNCCC(NC(=O)C1SCCN1S(=O)(=O)c1ccc(-c2ccccc2)cc1)c1ccccc1 (centres unmarked) [N-(3-{[2-(acetylamino)ethyl]amino}-1-phenylpropyl)-3-([1,1′-biphenyl]-4-ylsulfonyl)-1,3-thiazolidine-2-carboxamide] | 
